In patent US20030194719A1, “Tpst-assay for diagnosis of autism and related disorders” (priority 2000, published 2003):

Test system: Tyrosyl protein sulphotransferase (TPST)
Test: TPST activity assay in platelets from normal healthy blood donors (35S transfer from PAPS35 to EAY substrate)
Assay type: biochemical, human
Conditions: for TPST activity (0 μM = 100): Table 7; for TPST activity (0 μM = 100.0): Table 5
Procedure: The activity of sulphotransferases can be measured by monitoring the transfer of ^35S from the sulphate donor, PAPS^35, to the product, in this case the synthetic tyrosine substrate EAY. This assay uses platelets from control subjects (n=5) and those patients suffering from a particular disorder, selected from autism (n=14), irritable bowel syndrome (n=3) schizophrenia (gluten-sensitive)(n=4), food allergy (gluten, milk) (n=3) and depression (n=2).
Reaction mixtures were incubated for 50 minutes at 37° C. and reactions were stopped by barium acetate. Unreacted sulphate, proteins and nucleotides were precipitated by zinc sulphate and barium hydroxide. Within the reaction there is a positive and negative control. The positive control is termed 100%, and represents the total amount of radioactivity present in the hot PAPS^35 sample. The negative control is the “no-enzyme” reaction, this represents the amount of sulphate transferred to the product when no enzyme is present, i.e. the chemical reaction. The blank for the reaction is made up without PAPS^35 and without enzyme.
10 ml of whole blood was taken from patients and the blood cells removed. The remaining plasma was centrifuged at 8000 g for 5 mins to sediment the platelets. This platelet pellet was resuspended in 5 ml 10 mM phosphate buffered saline (PBS) containing 10 mM EDTA, recentrifuged at 2000 g at 4° C. for 30 min. […] The platelets were sonicated for 12×10 second bursts at 4° C. The platelet sonicates were stored in 1 ml portions at −70° C. prior to use.
Substrate: 10 μl EAY (300 μM; poly (Glu, Ala, Tyr) 6:3:1) was used in each test assay, to give a final concentration in the reaction of 20 μM. This solution was made up in MES reaction buffer.
Reaction mixtures were made up as in the table above. To begin the assay, platelet homogenate (20 μl) and PAPS^35 (20 μl) were added at 30-second intervals to a final volume of 150 μl. The reaction mixture was then incubated at 37° C. for 40 min. The reaction is stopped by the addition of 200 μl-barium acetate (0.1 M) and the tubes were vortexed and placed on ice for […].
Unreacted sulphate was then precipitated by the addition of 0.1 M zinc sulphate (200 μl) and 0.1 M barium hydroxide (200 μl). The tubes were vortexed and centrifuged at 6500 rpm for 3 min.
Repeat step 3. Supernatant (500 μl) was then added to scintillation fluid (3.5 ml) and S^35 was counted in a Phillips scintillation counter.
Various compounds were investigated, including fatty acids, flavonoids and amino acids. […] Compounds were tested at the concentrations shown and were dissolved in buffer where possible or ethanol if not.
In the Example shown in Table 6 and FIG. 6 compounds were all dissolved in DMSO and tested at 25 μM.

[1] = Table 6, 25 μM, dissolved in DMSO, human platelets
[2] = Table 2, 100 μM, normal human platelets
[3] = Example 2, concentrations as in Table 2, normal human platelets

O=c1cc(-c2cc(O)c(O)c(O)c2O)oc2cc(O)ccc12 [2′,3′,4′,5′,7 OH Flavone]
% Control TPST Activity [1]: 38%

O=c1c(O)c(-c2ccccc2)oc2ccccc12 [3 OH Flavone]
% Control TPST Activity [1]: 96% | TPST activity (0 μM = 100) (flavonoid 0.5 μM): 79 | TPST activity (0 μM = 100) (flavonoid 1 μM): 92.6 | TPST activity (0 μM = 100) (flavonoid 2.5 μM): 90.7 | TPST activity (0 μM = 100) (flavonoid 5 μM): 83 | TPST activity (0 μM = 100) (flavonoid 10 μM): 97.9 | TPST activity (0 μM = 100) (flavonoid 25 μM): 101.1 | TPST activity (0 μM = 100) (flavonoid 50 μM): 95.5 | TPST activity (0 μM = 100) (flavonoid 100 μM): 94.4

O=c1cc(-c2ccc(O)c(O)c2)oc2ccccc12 [3′,4′ OH Flavone]
% Control TPST Activity [1]: 55%

O=c1c(-c2ccc(O)c(O)c2)coc2cc(O)ccc12 [3′,4′,7 OH Isoflavone]
% Control TPST Activity [1]: 17%

O=c1cc(-c2cc(O)cc(O)c2)oc2cc(O)ccc12 [3′,5′,7 OH Flavone]
% Control TPST Activity [1]: 32%

O=c1cc(-c2ccccc2)oc2cccc(O)c12 [5 OH Flavone]
% Control TPST Activity [1]: 152%

O=c1cc(-c2ccccc2)oc2cc(O)c(O)c(O)c12 [5′,6′,7′ OH Flavone]
% Control TPST Activity [1]: 1%

Oc1cc(O)c2c(c1)O[C@H](c1ccc(O)c(O)c1)[C@@H](O)C2 [(+)-Catechin]
% Control TPST Activity [1]: 74%

O=c1cc(-c2ccc(O)cc2)oc2cc(O)cc(O)c12 [Apigenin]
% Control TPST Activity [1]: 31%

CCCC(=O)O [Butyric Acid]
% Control TPST Activity [2]: 125% | TPST activity (0 μM = 100.0) (fatty acid 0.5 μM): 137.6 | TPST activity (0 μM = 100.0) (fatty acid 1 μM): 96.8 | TPST activity (0 μM = 100.0) (fatty acid 2.5 μM): 114.3 | TPST activity (0 μM = 100.0) (fatty acid 5 μM): 94.6 | TPST activity (0 μM = 100.0) (fatty acid 10 μM): 99.2 | TPST activity (0 μM = 100.0) (fatty acid 25 μM): 76.1 | TPST activity (0 μM = 100.0) (fatty acid 50 μM): 86.4 | TPST activity (0 μM = 100.0) (fatty acid 100 μM): 62.2

O=C(O)CC(O)(CC(=O)O)C(=O)O [Citrate]
Effect on TPST activity (in words) [3]: increasing activity | % Control TPST Activity [2]: 113%

CC/C=C\C/C=C\C/C=C\C/C=C\C/C=C\C/C=C\CCC(=O)O [DHA, docosahexanoic acid]
TPST activity (0 μM = 100.0) (fatty acid 0.5 μM): 91.8 | TPST activity (0 μM = 100.0) (fatty acid 1 μM): 105.2 | TPST activity (0 μM = 100.0) (fatty acid 2.5 μM): 115.9 | TPST activity (0 μM = 100.0) (fatty acid 5 μM): 109.6 | TPST activity (0 μM = 100.0) (fatty acid 10 μM): 97.0 | TPST activity (0 μM = 100.0) (fatty acid 25 μM): 117.8 | TPST activity (0 μM = 100.0) (fatty acid 50 μM): 119.4 | TPST activity (0 μM = 100.0) (fatty acid 100 μM): 103.3

O=c1c(-c2ccc(O)cc2)coc2cc(O)ccc12 [Daidzein]
Effect on TPST activity (in words) (Example 3, 25 μM, platelets): stimulation of TPST activity | % Control TPST Activity [1]: 279% | TPST activity (0 μM = 100) (flavonoid 2.5 μM): 100.2 | TPST activity (0 μM = 100) (flavonoid 5 μM): 107.5 | TPST activity (0 μM = 100) (flavonoid 10 μM): 181.1 | TPST activity (0 μM = 100) (flavonoid 25 μM): 343.2 | TPST activity (0 μM = 100) (flavonoid 50 μM): 303.1

O=c1cc(-c2ccccc2)oc2ccccc12 [Flavone]
Effect on TPST activity (in words) (Example 3, 25 μM, platelets): stimulation of TPST activity | % Control TPST Activity [1]: 180% | TPST activity (0 μM = 100) (flavonoid 0.5 μM): 80.3 | TPST activity (0 μM = 100) (flavonoid 1 μM): 96.4 | TPST activity (0 μM = 100) (flavonoid 2.5 μM): 93.5 | TPST activity (0 μM = 100) (flavonoid 5 μM): 102.3 | TPST activity (0 μM = 100) (flavonoid 10 μM): 126 | TPST activity (0 μM = 100) (flavonoid 25 μM): 172.8 | TPST activity (0 μM = 100) (flavonoid 50 μM): 230.2 | TPST activity (0 μM = 100) (flavonoid 100 μM): 307.3

CCCCC/C=C\C/C=C\C/C=C\CCCCC(=O)O [GLA, gamma linolenic acid]
TPST activity (0 μM = 100.0) (fatty acid 10 μM): 78.8 | TPST activity (0 μM = 100.0) (fatty acid 25 μM): 72.6 | TPST activity (0 μM = 100.0) (fatty acid 50 μM): 71.3 | TPST activity (0 μM = 100.0) (fatty acid 100 μM): 61.2

O=c1c(-c2ccc(O)cc2)coc2cc(O)cc(O)c12 [Genistein]
Effect on TPST activity (in words) (Example 2, 100 μM): inhibitory effect on TPST activity | Effect on TPST activity (in words) (Example 3, 25 μM, platelets): stimulation of TPST activity | Effect on TPST activity (in words) (Example 3, 25 μM, platelets, listed as genistein): TPST enhancing effect | % Control TPST Activity [2]: 74% | % Control TPST Activity [1]: 117% | TPST activity (0 μM = 100) (flavonoid 2.5 μM): 86.5 | TPST activity (0 μM = 100) (flavonoid 5 μM): 83.4 | TPST activity (0 μM = 100) (flavonoid 10 μM): 75.8 | TPST activity (0 μM = 100) (flavonoid 25 μM): 50.9 | TPST activity (0 μM = 100) (flavonoid 50 μM): 62

N[C@@H](CCC(=O)O)C(=O)O [Glutamate]
Effect on TPST activity (in words) [3]: decreased activity | % Control TPST Activity [2]: 67%

NC(=O)CC[C@H](N)C(=O)O [Glutamine]
Effect on TPST activity (in words) [3]: increased activity | % Control TPST Activity [2]: 125%

O=c1c(O)c(-c2ccc(O)cc2)oc2cc(O)cc(O)c12 [Kaempferol]
TPST activity (0 μM = 100) (flavonoid 0.5 μM): 45.2 | TPST activity (0 μM = 100) (flavonoid 1 μM): 39.9 | TPST activity (0 μM = 100) (flavonoid 2.5 μM): 22.3 | TPST activity (0 μM = 100) (flavonoid 5 μM): 21.4 | TPST activity (0 μM = 100) (flavonoid 10 μM): 14.4 | TPST activity (0 μM = 100) (flavonoid 25 μM): 11 | TPST activity (0 μM = 100) (flavonoid 50 μM): 7.3 | TPST activity (0 μM = 100) (flavonoid 100 μM): 2.9

CCCCC/C=C\C/C=C\CCCCCCCC(=O)O [Linoleic Acid]
% Control TPST Activity [2]: 113%

CCCCCCCC/C=C\CCCCCCCC(=O)O [Oleic Acid]
Effect on TPST activity (in words) [3]: slight stimulation of TPST activity | % Control TPST Activity [2]: 111% | TPST activity (0 μM = 100.0) (fatty acid 0.5 μM): 74.5 | TPST activity (0 μM = 100.0) (fatty acid 1 μM): 61.5 | TPST activity (0 μM = 100.0) (fatty acid 2.5 μM): 69.2 | TPST activity (0 μM = 100.0) (fatty acid 5 μM): 51.4 | TPST activity (0 μM = 100.0) (fatty acid 10 μM): 60.5 | TPST activity (0 μM = 100.0) (fatty acid 25 μM): 56.2 | TPST activity (0 μM = 100.0) (fatty acid 50 μM): 54.3 | TPST activity (0 μM = 100.0) (fatty acid 100 μM): 29.5

CCCCC[C@H](O)/C=C/[C@H]1[C@H](O)CC(=O)[C@@H]1C/C=C\CCCC(=O)O [PGE2, prostaglandin E2]
Effect on TPST activity (in words) [3]: stimulation of activity | % Control TPST Activity [2]: 124%

CCCCCC/C=C\CCCCCCCC(=O)O [Palmitoleic]
TPST activity (0 μM = 100.0) (fatty acid 10 μM): 99.5 | TPST activity (0 μM = 100.0) (fatty acid 25 μM): 95.2 | TPST activity (0 μM = 100.0) (fatty acid 50 μM): 93.5 | TPST activity (0 μM = 100.0) (fatty acid 100 μM): 81.4

N[C@@H](Cc1ccccc1)C(=O)O [Phenylalanine]
Effect on TPST activity (in words) [3]: decreased TPST activity in a dose dependent fashion | % Control TPST Activity (Table 2, 50 μM, normal human platelets): 79% | % Control TPST Activity (Table 2, 1000 μM, normal human platelets): 40%

O=c1c(O)c(-c2ccc(O)c(O)c2)oc2cc(O)cc(O)c12 [Quercetin]
% Control TPST Activity [2]: 3% | % Control TPST Activity [1]: 48% | TPST activity (0 μM = 100) (flavonoid 0.5 μM): 45.8 | TPST activity (0 μM = 100) (flavonoid 1 μM): 33.7 | TPST activity (0 μM = 100) (flavonoid 2.5 μM): 25.7 | TPST activity (0 μM = 100) (flavonoid 5 μM): 21.1 | TPST activity (0 μM = 100) (flavonoid 10 μM): 9.5 | TPST activity (0 μM = 100) (flavonoid 25 μM): 5 | TPST activity (0 μM = 100) (flavonoid 50 μM): 0.9 | TPST activity (0 μM = 100) (flavonoid 100 μM): 0

O=C(O)CCC(=O)O [Succinate]
Effect on TPST activity (in words) [3]: decreasing sulphation | % Control TPST Activity [2]: 59%
